# Source: patent US11439618B2, “Compositions and methods for lowering triglycerides” (Amarin Pharmaceuticals Ireland Limited, priority 2009, dated 2022)
# System: subjects with Age-Associated Memory Impairment
# Test: Safety and tolerability (adverse events), 6-week AAMI study
# Assay type: in vivo, human
# Experimental: All randomized subjects that received at least 1 dose of study medication were included in the Safety Population.
# Safety evaluations were based on the safety population. Safety and tolerability were assessed in terms of AEs, vital signs, 12-lead ECG, clinical laboratory data, medical history, and study drug compliance. Safety and tolerability data were presented by treatment group.
smiles,measurement,setting,value
"CC/C=C\C/C=C\C/C=C\C/C=C\C/C=C\CCCC(=O)OCC [Ethyl-EPA, all-cis eicosa-5,8,11,14,17-pentaenoic acid ethyl ester]",Nausea Probably Related to the study drug,1 g,One
same,Nausea Possibly Related to the study drug,1 g cohort,two
same,Nausea Possibly Related to the study drug,2 g cohort,one
same,SAE reported,2 g treatment group,One
same,Subjects discontinued due to TEAEs,2 g treatment group,2 subjects
same,"Serious adverse event (worsening epigastric chest pain), relation to study drug","2 g, one subject, 17 days after start, 9 days after last dose",unrelated to the study drug
same,Nausea Possibly Related to the study drug,4 g cohort,two
same,"Diarrhea, relation to the study drug","4 g, one subject",diarrhea that was Probably Related to the study drug
same,Treatment emergent AEs (TEAEs) reported,"ethyl-EPA treatment groups (1, 2, 4 g), placebo groups 34 events",105 events
same,Deaths during the study,whole study,no deaths
same,Severity and relatedness of most TEAEs,whole study,mild in severity and unrelated to study drug
same,TEAEs Definitely Related to the study drug,whole study,No TEAEs were Definitely Related
